Experimental data reported in ChEMBL document CHEMBL2150973, “Dual inhibitors for aspartic proteases HIV-1 PR and renin: advancements in AIDS-hypertension-diabetes linkage via molecular dynamics, inhibition assays, and binding free energy calculations” (J Med Chem, 2012).

Test system: Human immunodeficiency virus 1
Assay: microbe, parasite or virus in culture

IC90: 4.1 nM
Compound: CC(C)CN(C[C@@H](O)[C@H](Cc1ccccc1)NC(=O)O[C@H]1CO[C@H]2OCC[C@H]21)S(=O)(=O)c1ccc(N)cc1
